According to ChEMBL document CHEMBL4138123, “Design, synthesis and biological evaluation of novel pyrazolochalcones as potential modulators of PI3K/Akt/mTOR pathway and inducers of apoptosis in breast cancer cells” (Eur J Med Chem, 2017):

How the values were obtained:
Format in all cases: functional
[1] = test system: CCRF-CEM; experiment: Cytotoxicity against human CCRF-CEM cells assessed as growth inhibition after 48 hrs by sulforhodamine B assay
[2] = test system: K562; experiment: Cytotoxicity against human K562 cells assessed as growth inhibition after 48 hrs by sulforhodamine B assay; settings: K562, 48 h
[3] = test system: RPMI-8226; experiment: Cytotoxicity against human RPMI8226 cells assessed as growth inhibition after 48 hrs by sulforhodamine B assay; settings: RPMI-8226, 48 h
[4] = test system: SR; experiment: Cytotoxicity against human SR cells assessed as growth inhibition after 48 hrs by sulforhodamine B assay; settings: for CC50: read-out: LC50 (the source's name)
[5] = test system: NCI-H23; experiment: Cytotoxicity against human NCI-H23 cells assessed as growth inhibition after 48 hrs by sulforhodamine B assay; settings: NCI-H23, 48 h; for CC50: read-out: LC50 (the source's name)
[6] = test system: NCI-H460; experiment: Cytotoxicity against human NCI-H460 cells assessed as growth inhibition after 48 hrs by sulforhodamine B assay; settings: NCI-H460, 48 h
[7] = test system: HCT-116; experiment: Cytotoxicity against human HCT116 cells assessed as growth inhibition after 48 hrs by sulforhodamine B assay; settings: HCT-116, 48 h
[8] = test system: SF-268; experiment: Cytotoxicity against human SF268 cells assessed as growth inhibition after 48 hrs by sulforhodamine B assay; settings: SF-268, 48 h; for CC50: read-out: LC50 (the source's name)
[9] = test system: M14; experiment: Cytotoxicity against human M14 cells assessed as growth inhibition after 48 hrs by sulforhodamine B assay; settings: M14, 48 h
[10] = test system: SK-MEL-5; experiment: Cytotoxicity against human SK-MEL-5 cells assessed as growth inhibition after 48 hrs by sulforhodamine B assay; settings: SK-MEL-5, 48 h
[11] = test system: OVCAR-5; experiment: Cytotoxicity against human OVCAR5 cells assessed as growth inhibition after 48 hrs by sulforhodamine B assay; settings: OVCAR-5, 48 h
[12] = test system: OVCAR-5; experiment: Cytotoxicity against human OVCAR5 cells assessed as cell growth at 0.01 uM after 48 hrs by sulforhodamine B assay relative to control; settings: OVCAR-5, 48 h, read-out: Activity
[13] = test system: HT-29; experiment: Cytotoxicity against human HT-29 cells assessed as cell growth at 0.01 uM after 48 hrs by sulforhodamine B assay relative to control; settings: HT-29, 48 h, read-out: Activity
[14] = test system: COLO 205; experiment: Cytotoxicity against human COLO205 cells assessed as cell growth at 0.01 uM after 48 hrs by sulforhodamine B assay relative to control; settings: COLO 205, 48 h, read-out: Activity
[15] = test system: MOLT-4; experiment: Cytotoxicity against human MOLT4 cells assessed as cell growth at 0.01 uM after 48 hrs by sulforhodamine B assay relative to control; settings: MOLT-4, 48 h, read-out: Activity
[16] = test system: T47D; experiment: Cytotoxicity against human T47D cells assessed as cell growth at 0.01 uM after 48 hrs by sulforhodamine B assay relative to control; settings: read-out: Activity
[17] = test system: HCC 2998; experiment: Cytotoxicity against human HCC2998 cells assessed as cell growth at 0.1 uM after 48 hrs by sulforhodamine B assay relative to control; settings: HCC 2998, 48 h, read-out: Activity
[18] = test system: UACC-257; experiment: Cytotoxicity against human UACC257 cells assessed as cell growth at 0.1 uM after 48 hrs by sulforhodamine B assay relative to control; settings: UACC-257, 48 h, read-out: Activity
[19] = test system: OVCAR-3; experiment: Cytotoxicity against human OVCAR3 cells assessed as cell growth at 0.1 uM after 48 hrs by sulforhodamine B assay relative to control; settings: OVCAR-3, 48 h, read-out: Activity
[20] = test system: 786-0; experiment: Cytotoxicity against human 786-0 cells assessed as cell growth at 0.1 uM after 48 hrs by sulforhodamine B assay relative to control; settings: 786-0, 48 h, read-out: Activity
[21] = test system: PC-3; experiment: Cytotoxicity against human PC3 cells assessed as cell growth at 0.1 uM after 48 hrs by sulforhodamine B assay relative to control; settings: PC-3, 48 h, read-out: Activity
[22] = test system: DU-145; experiment: Cytotoxicity against human DU145 cells assessed as cell growth at 0.1 uM after 48 hrs by sulforhodamine B assay relative to control; settings: DU-145, 48 h, read-out: Activity
[23] = test system: T47D; experiment: Cytotoxicity against human T47D cells assessed as cell growth at 0.1 uM after 48 hrs by sulforhodamine B assay relative to control; settings: read-out: Activity
[24] = test system: HL-60(TB); experiment: Cytotoxicity against human HL-60(TB) cells assessed as cell growth at 1 uM after 48 hrs by sulforhodamine B assay relative to control; settings: HL-60, 48 h, read-out: Activity
[25] = test system: RPMI-8226; experiment: Cytotoxicity against human RPMI8226 cells assessed as cell growth at 1 uM after 48 hrs by sulforhodamine B assay relative to control; settings: RPMI-8226, 48 h, read-out: Activity
[26] = test system: HOP-62; experiment: Cytotoxicity against human HOP62 cells assessed as cell growth at 1 uM after 48 hrs by sulforhodamine B assay relative to control; settings: HOP-62, 48 h, read-out: Activity
[27] = test system: NCI-H322M; experiment: Cytotoxicity against human NCI-H322M cells assessed as cell growth at 1 uM after 48 hrs by sulforhodamine B assay relative to control; settings: read-out: Activity
[28] = test system: HCT-116; experiment: Cytotoxicity against human HCT116 cells assessed as cell growth at 1 uM after 48 hrs by sulforhodamine B assay relative to control; settings: HCT-116, 48 h, read-out: Activity
[29] = test system: SW-620; experiment: Cytotoxicity against human SW620 cells assessed as cell growth at 1 uM after 48 hrs by sulforhodamine B assay relative to control; settings: SW-620, 48 h, read-out: Activity
[30] = test system: Hs-578T; experiment: Cytotoxicity against human Hs 578T cells assessed as cell growth at 1 uM after 48 hrs by sulforhodamine B assay relative to control; settings: read-out: Activity
[31] = test system: HL-60(TB); experiment: Cytotoxicity against human HL-60(TB) cells assessed as cell growth at 10 uM after 48 hrs by sulforhodamine B assay relative to control; settings: HL-60, 48 h, read-out: Activity
[32] = test system: RPMI-8226; experiment: Cytotoxicity against human RPMI8226 cells assessed as cell growth at 10 uM after 48 hrs by sulforhodamine B assay relative to control; settings: RPMI-8226, 48 h, read-out: Activity
[33] = test system: ACHN; experiment: Cytotoxicity against human ACHN cells assessed as cell growth at 10 uM after 48 hrs by sulforhodamine B assay relative to control; settings: read-out: Activity
[34] = test system: DU-145; experiment: Cytotoxicity against human DU145 cells assessed as cell growth at 10 uM after 48 hrs by sulforhodamine B assay relative to control; settings: DU-145, 48 h, read-out: Activity
[35] = test system: COLO 205; experiment: Cytotoxicity against human COLO205 cells assessed as cell growth at 100 uM after 48 hrs by sulforhodamine B assay relative to control; settings: COLO 205, 48 h, read-out: Activity
[36] = test system: OVCAR-4; experiment: Cytotoxicity against human OVCAR4 cells assessed as cell growth at 100 uM after 48 hrs by sulforhodamine B assay relative to control; settings: OVCAR-4, 48 h, read-out: Activity

COc1cc(C(=O)/C=C/c2cc(-c3ccc4c(c3)OCO4)n[nH]2)cc(OC)c1OC
GI50 [1]: 2 µM
LC50 (concentration killing 50% of cells) [1]: > 100 µM
TGI [1]: 5.74 µM
GI50 [2]: 2.17 µM
LC50 (concentration killing 50% of cells) [2]: > 100 µM
TGI [2]: > 100 µM
GI50 [3]: 0.56 µM
LC50 [3]: > 100 µM
TGI [3]: 2.53 µM
GI50 [4]: 1.2 µM
TGI [4]: 5.63 µM
CC50 [4]: > 100 µM
GI50 [5]: 2.9 µM
TGI [5]: 10.3 µM
CC50 [5]: 40.3 µM
GI50 [6]: 1.81 µM
LC50 [6]: 7.84 µM
TGI [6]: 3.77 µM
GI50 [7]: 1.9 µM
LC50 [7]: > 100 µM
TGI [7]: 4.63 µM
GI50 [8]: 2.45 µM
TGI [8]: 7.64 µM
CC50 [8]: 31.2 µM
GI50 [9]: 2.91 µM
LC50 (concentration killing 50% of cells) [9]: 37.8 µM
TGI [9]: 9.21 µM
GI50 [10]: 3.32 µM
LC50 (concentration killing 50% of cells) [10]: 37.7 µM
TGI [10]: 13.3 µM
GI50 [11]: 2.63 µM
LC50 [11]: 76.8 µM
TGI [11]: 9.6 µM
growth at 0.01 µM [12]: 98%
growth at 0.01 µM [13]: 103%
growth at 0.01 µM [14]: 100%
growth at 0.01 µM [15]: 97%
growth at 0.01 µM [16]: 90%
growth at 0.1 µM [17]: 100%
growth at 0.1 µM [18]: 97%
growth at 0.1 µM [19]: 100%
growth at 0.1 µM [20]: 98%
growth at 0.1 µM [21]: 95%
growth at 0.1 µM [22]: 99%
growth at 0.1 µM [23]: 77%
growth at 1 µM [24]: 85%
growth at 1 µM [25]: 32%
growth at 1 µM [26]: 93%
growth at 1 µM [27]: 84%
growth at 1 µM [28]: 86%
growth at 1 µM [29]: 78%
growth at 1 µM [30]: 90%
growth at 10 µM [31]: -20%
growth at 10 µM [32]: -48%
growth at 10 µM [33]: -43%
growth at 10 µM [34]: -4%
growth at 100 µM [35]: -74%
growth at 100 µM [36]: -100%

COc1cc(-c2cc(/C=C/C(=O)c3ccc4c(c3)OCO4)[nH]n2)cc(OC)c1OC
LC50 (concentration killing 50% of cells) [1]: > 100 µM
TGI [1]: 5.95 µM
LC50 (concentration killing 50% of cells) [2]: > 100 µM
TGI [2]: 9.81 µM
LC50 [3]: > 100 µM
TGI [3]: 2.94 µM
TGI [4]: > 100 µM
CC50 [4]: > 100 µM
TGI [5]: > 100 µM
CC50 [5]: > 100 µM
LC50 [6]: > 100 µM
TGI [6]: 5.1 µM
TGI [8]: 14.5 µM
CC50 [8]: > 100 µM
LC50 (concentration killing 50% of cells) [9]: > 100 µM
TGI [9]: > 100 µM
LC50 (concentration killing 50% of cells) [10]: > 100 µM
TGI [10]: > 100 µM
LC50 [11]: > 100 µM
TGI [11]: 93.5 µM
growth at 0.01 µM [12]: 97%
growth at 0.01 µM [13]: 99%
growth at 0.01 µM [14]: 105%
growth at 0.01 µM [15]: 97%
growth at 0.01 µM [16]: 100%
growth at 0.1 µM [17]: 102%
growth at 0.1 µM [18]: 91%
growth at 0.1 µM [19]: 101%
growth at 0.1 µM [20]: 97%
growth at 0.1 µM [21]: 99%
growth at 0.1 µM [22]: 102%
growth at 0.1 µM [23]: 91%
growth at 1 µM [24]: 86%
growth at 1 µM [25]: 36%
growth at 1 µM [26]: 95%
growth at 1 µM [27]: 93%
growth at 1 µM [28]: 90%
growth at 1 µM [29]: 88%
growth at 1 µM [30]: 94%
growth at 10 µM [31]: -21%
growth at 10 µM [32]: -41%
growth at 10 µM [33]: -73%
growth at 10 µM [34]: -2%
growth at 100 µM [35]: -100%
growth at 100 µM [36]: 3%
